According to EP0370382A2, “Urea dipeptide derivatives with a renin-inhibiting activity, process to produce them, compositions containing them and their use” (HOECHST AKTIENGESELLSCHAFT, priority 1988, dated 1990):

target: T1, Renin (Homo sapiens, UniProt P00797); assay: Renin inhibition in human plasma (angiotensin I release, radioimmunoassay); format: biochemical; settings: 37°C, 1 h incubation, phosphate buffer pH 7.4, max. 1 % DMSO, read from % residual plasma renin activity vs. concentration, read-out: IC₅₀
T1 construct: Das Blut wird von freiwilligen Probanden gewonnen; from tissue; host or cells: human blood plasma (EDTA) from volunteers
T1 sequence (P00797 67-406): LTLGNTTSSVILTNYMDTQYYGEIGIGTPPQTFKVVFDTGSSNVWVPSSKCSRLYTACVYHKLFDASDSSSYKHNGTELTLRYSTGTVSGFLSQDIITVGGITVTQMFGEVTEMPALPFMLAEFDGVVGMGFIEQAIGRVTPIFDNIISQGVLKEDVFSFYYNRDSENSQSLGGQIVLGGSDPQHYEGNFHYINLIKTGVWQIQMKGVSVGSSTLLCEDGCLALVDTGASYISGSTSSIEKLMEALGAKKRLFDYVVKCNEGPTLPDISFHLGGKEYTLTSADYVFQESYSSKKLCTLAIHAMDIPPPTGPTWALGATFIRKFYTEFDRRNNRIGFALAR
Procedure: Die Wirksamkeit von Renin-Hemmern kann durch in-vitro-Tests überprüft werden. Hierbei wird die Verminderung der Bildung von Angiotensin I in verschiedenen Systemen (Humanplasma, gereinigtes Humanrenin) gemessen.
Z.B. Humanplasma, welches sowohl Renin als auch Angiotensinogen enthält, wird bei 37°C mit der zu testenden Verbindung inkubiert. Dabei wird aus Angiotensinogen unter der Einwirkung von Renin Angiotensin I freigesetzt, das anschließend mit einem handelsüblichen Radioimmunoassay gemessen werden kann. Diese Angiotensin-Freisetzung wird durch Renin-Inhibitoren gehemmt.
Das Blut wird von freiwilligen Probanden gewonnen (ca. 0,5 l pro Person; Bluko-Entnahmegerät der Fa. ASID Bonz und Sohn, Unterschleißheim) und in teilweise evakuierten Flaschen unter Eiskühlung aufgefangen. Die Gerinnung wird durch Zugabe von EDTA (Endkonzentration 10 mM) verhindert. Nach dem Zentrifugieren (Rotor HS 4 (Sorvall), 3 500 Upm, 0-4°C, 15 min; wiederholen, falls erforderlich) wird das Plasma vorsichtig abpipettiert und in geeigneten Portionen bei -30°C eingefroren. Für den Test werden nur Plasmen mit ausreichend hoher Reninaktivität verwendet. Plasmen mit niedriger Reninaktivität werden durch eine Kältebehandlung (-4°C, 3 Tage) aktiviert (Prorenin → Renin).
Angiotensin I wird mit dem Renin-Maia®-Kit (Serono Diagnostics S.A., Coinsins, Schweiz) bestimmt. Die Inkubation des Plasmas wird nach der dort angegebenen Anleitung durchgeführt: Inkubationsansatz: 1000 µl Plasma (bei 0-4°C aufgetaut) 100 µl Phosphatpuffer (pH 7,4) Zusatz von 10⁻⁴ M Ramiprilat) 10 µl PMSF-Lösung 10 µl 0,1 % Genapol PFIC 12 µl DMSO bzw. Testpräparat
Die Testpräparate werden i.a. 10⁻² M in 100 % Dimethylsulfoxid (DMSO) gelöst und mit DMSO entsprechend verdünnt; der Inkubationsansatz enthält max. 1 % DMSO.
Die Ansätze werden in Eis gemischt und für 1 Stunde zur Inkubation in ein Wasserbad (37°C) gestellt. Aus einem zusätzlichen Ansatz ohne Inhibitor werden ohne weitere Inkubation insgesamt 6 Proben (jeweils 100 µl) zur Bestimmung des Ausgangs-Angiotensin I-Gehaltes des verwendeten Plasmas entnommen.
Die Konzentrationen der Testpräparate werden so gewählt, daß etwa der Bereich von 10-90 % Enzymhemmung abgedeckt ist (mindestens fünf Konzentrationen). Am Ende der Inkubationszeit werden aus jedem Ansatz drei 100 µl-Proben in vorgekühlten Eppendorf-Gefäßen auf Trockeneis eingefroren und bei ca. -25°C für die Angiotensin I-Bestimmung aufbewahrt (Mittelwert aus drei Einzelproben).
Es wird exakt der Gebrauchsanweisung des RIA-Kits (Renin-Maia®-Kit, Serono Diagnostics S.A., Coinsins, Schweiz) befolgt.
Die Eichkurve umfaßt den Bereich von 0,2 bis 25,0 ng Angiotensin I pro ml. Der Basis-Angiotensin I-Gehalt des Plasmas wird von allen Meßwerten abgezogen. Die Plasma-Renin-Aktivität (PRA) wird als ng Ang I/ml x Stunde angegeben. PRA-Werte in Gegenwart der Testsubstanzen werden auf einen Ansatz ohne Inhibitor (= 100 %) bezogen und als % Restaktivität angegeben. Aus der Auftragung von % Restaktivität gegen die Konzentration (M) des Testpräparates (logarithmische Skala) wird der IC₅₀-Wert abgelesen.

Compared with `CCC[C@H](NC(=O)[C@H](Cc1ccccc1)NC(=O)NCC(C)(C)C)C(=O)N[C@@H](CC1CCCCC1)[C@@H](O)CCCc1ccccn1` [Beispiel 3, 1-Cyclohexyl-6-(2-pyridyl)-2S-(N-(2,2-dimethylpropylaminocarbonyl-Phe-Nva)-amino)-3S-hexanol], `CCC[C@H](NC(=O)[C@H](Cc1ccccc1)NC(=O)NCC(C)(C)N)C(=O)N[C@@H](CC1CCCCC1)[C@@H](O)CCCc1ccccn1` [Beispiel 13, 1-Cyclohexyl-6-(2-pyridyl)-2S-(N-(2-amino-2-methylpropylaminocarbonyl-Phe-Nva)-amino)-3S-hexanol] is 2.6-fold lower in IC50: 900 nM for the first, 340 nM for the second.

First: CCC[C@H](NC(=O)[C@H](Cc1ccccc1)NC(=O)NC(C)C)C(=O)N[C@@H](CC1CCCCC1)[C@H](O)CCCc1ccccn1 [Beispiel 12, 1-Cyclohexyl-6-(2-pyridyl)-2S-(N-(isopropylaminocarbonyl-Phe-Nva)-amino)-3R-hexanol]
Second: CCC[C@H](NC(=O)[C@H](Cc1ccccc1)NC(=O)NC(C)C)C(=O)N[C@@H](CC1CCCCC1)[C@@H](O)CCCc1ccccn1 [Beispiel 2, 1-Cyclohexyl-6-(2-pyridyl)-2S-(N-(isopropylaminocarbonyl-Phe-Nva)-amino)-3S-hexanol]
The IC50 of the first is 8.9-fold higher: 5500 nM for the first, 620 nM for the second.

Going from `CC(C)(C)NC(=O)N[C@@H](Cc1ccccc1)C(=O)N[C@@H](Cc1c[nH]cn1)C(=O)N[C@@H](CC1CCCCC1)[C@H](O)CCCc1ccccn1` [Beispiel 10, 1-Cyclohexyl-6-(2-pyridyl)-2S-(N-(tert.butylaminocarbonyl-Phe-His)-amino)-3R-hexanol] to `CC(C)(C)NC(=O)N[C@@H](Cc1ccccc1)C(=O)N[C@@H](Cc1c[nH]cn1)C(=O)N[C@@H](CC1CCCCC1)[C@@H](O)CCCc1ccccn1` [Beispiel 5], the IC50 falls from greater than 1000 nM to 1000 nM. The second is the more potent here.

Going from `CCC[C@H](NC(=O)[C@H](Cc1ccccc1)NC(=O)NC(C)(C)C)C(=O)N[C@@H](CC1CCCCC1)[C@H](O)CCCc1ccccn1` [Beispiel 9, 1-Cyclohexyl-6-(2-pyridyl)-2S-(N-(tert.butylaminocarbonyl-Phe-Nva)-amino)-3R-hexanol] to `CCC[C@H](NC(=O)[C@H](Cc1ccccc1)NC(=O)NC(C)(C)C)C(=O)N[C@@H](CC1CCCCC1)[C@@H](O)CCCc1ccccn1` [Beispiel 6, 1-Cyclohexyl-6-(2-pyridyl)-2S-(N-(tert.butylaminocarbonyl-Phe-Nva)-amino)-3S-hexanol], the IC50 falls from 6500 nM to 400 nM (16-fold).

Compared with `CCNC(=O)N[C@@H](Cc1ccccc1)C(=O)N[C@@H](Cc1c[nH]cn1)C(=O)N[C@@H](CC1CCCCC1)[C@@H](O)CCCc1ccccn1` [Beispiel 1, 1-Cyclohexyl-6-(2-pyridyl)-2S-(N-(ethylaminocarbonyl-Phe-His)-amino)-3S-hexanol], `CCNC(=O)N[C@@H](Cc1ccccc1)C(=O)N[C@@H](Cc1c[nH]cn1)C(=O)N[C@@H](CC1CCCCC1)[C@H](O)CCCc1ccccn1` [Beispiel 11, 1-Cyclohexyl-6-(2-pyridyl)-2S-(N-(ethylaminocarbonyl-Phe-His)-amino)-3R-hexanol] is 2.2-fold lower in IC50: 2000 nM for the first, 900 nM for the second.

Compared with `CC(C)(C)NC(=O)N[C@@H](Cc1ccccc1)C(=O)N[C@@H](CC(N)=O)C(=O)N[C@@H](CC1CCCCC1)[C@@H](O)CCCc1ccccn1` [Beispiel 14], `CCC[C@H](NC(=O)[C@H](Cc1ccccc1)NC(=O)NC(C)(C)C(=O)O)C(=O)N[C@@H](CC1CCCCC1)[C@@H](O)CCCc1ccccn1` [Beispiel 29, 1-Cyclohexyl-6-(2-pyridyl)-2S-[N-[(1-carboxy-1-methylethylaminocarbonyl)-Phe-Nva]-amino]-3S-hexanol] is 12-fold lower in IC50: 8000 nM for the first, 650 nM for the second. The second is the more potent here.

Compared with `CCC[C@H](NC(=O)[C@H](Cc1ccccc1)NC(=O)NCC)C(=O)N[C@@H](CC1CCCCC1)[C@@H](O)CCCc1ccccn1` [Beispiel 4, 1-Cyclohexyl-6-(2-pyridyl)-2S-(N-(ethylaminocarbonyl-Phe-Nva)-amino)-3S-hexanol], `CCC[C@H](NC(=O)[C@H](Cc1ccc(OC)cc1)NC(=O)NC(C)(C)C)C(=O)N[C@@H](CC1CCCCC1)[C@@H](O)CCCc1ccccn1` [Beispiel 8] is higher in IC50: 380 nM for the first, greater than 10000 nM for the second. The first is the more potent here.

`CCC[C@H](NC(=O)[C@H](Cc1cccs1)NC(=O)NC(C)(C)C)C(=O)N[C@@H](CC1CCCCC1)[C@@H](O)CCCc1ccccn1` [Beispiel 7, 1-Cyclohexyl-6-(2-pyridyl)-2S-(N-(tert.butylaminocarbonyl-Thi-Nva)-amino)-3S-hexanol] gave an IC50 of 260 nM.
